Experimental data taken from patent US20250123282A1, “METHODS FOR EVALUATION AND TREATMENT OF TYROSINE KINASE INHIBITOR (TKI)-RESISTANT ACUTE MYELOID LEUKEMIA” (LOMA LINDA UNIVERSITY, priority 2021, published 2025).

How the values were obtained:
MV4-11 cells [1] = test: Coculture of GILT and exogenous MIF on MV4-11 (sequential or simultaneous); assay type: cell-based, human; conditions: MV4-11, sequential coculture 5 days, 80 nM GILT only
Experimental: To investigate whether MIF/CXCLs-CXCR2 pathways could be activated by TKI-treatment in viable blasts to support their survival and continuous proliferation, a serial coculture was conducted to examine whether the supplementation of exogenous MIF at early (simultaneous) or late stage (sequential) of TKI treatment could rescue the GIL-treated MV4-11 in vitro. CD44, a multifunctional cell surface adhesion receptor, was identified as a key regulator of quiescent AML leukemic stem cells (LSCs) which are highly microenvironment dependent. […] In the simultaneous coculture, another group of CD44High^+ cells was also found which included both Ki67^+ and Ki67^− subsets (FIG. 8F). This group of CD44High^+ cells could be visualized in the flow cytometry histogram (FIG. 8G). […] CD44high^+ stem-like cells have been previously found to be highly tumorigenic, treatment-resistant and responsible for metastatic progression in breast cancer.

primary AML BMMNC = test: Human cytokine proteome profile array of cell-free supernatants from treated primary AML BMMNC; assay type: cell-based; conditions: 80 nM GILT, 3 days ex vivo, Patient #1 and #2, vs non-treated control
Experimental: To identify the protein(s) responsible for initiation of the survival mechanism and subsequent proliferation of AML blasts, human cytokine proteome profile arrays of cell-free supernatants from GILT-treated MV4-11's cultures were performed. […] Under the no treatment (No Tx) condition, MV4-11 releases numerous cytokines such as MIF in their supernatant; however, one dose of GILT-treatment eliminated release of a variety of cytokines such as osteopontin (arrows, FIG. 7A), a protein closely associated with adverse prognosis in AML patients. Next, bone marrow mononuclear cells (BMMNC) from AML patients were treated for 3 days ex vivo.
Human Samples. AML bone marrow (BM) mononuclear cells (BMMNC) (Patients #1-7, Table 4) were obtained from the City of Hope National Medical Center (COHNMC). All donor patients signed an informed consent form. Sample acquisition was approved by the Institutional Review Boards at the LLUMC and the COHNMC in accordance with an assurance filed with and approved by the Department of Health and Human Services, and it met all requirements of the Declaration of Helsinki.
For MIF in vitro experiments, different doses of MIF were added to 1 ml of 1×10^6 MV4-11 cells or RAW264.7 cells for each experimental group in 24-well plates. Two days after the one dose treatment, cells were then collected for either analyses by FACS and qPCR. […]

MV4-11 = conditions: cited from earlier work
MV4-11 cells [2] = test: Phase-bright imaging of re-growth of TKI-treated MV4-11; assay type: cell-based, human
From the text: (§1) To follow the cell fate of TKI-treated MV4-11 and MOLM-14, culturing of blasts were continued by performing medium change every 2-3 days. […] The BAD protein is a pro-apoptotic member of the BCL-2 gene family, which is involved in initiating apoptosis. Dephosphorylated BAD is pro-apoptotic by binding BCL-2 and inactivating BCL-2, while phosphorylated BAD (pBAD) is anti-apoptotic by leaving BCL-2 free to inhibit BAX-triggered apoptosis.
(§2) Small Molecular Inhibitors and in vitro & ex vivo Treatment. […] The dose of 80 nM for the four TKIs was selected based on their dose-dependent cytotoxicity in previous reports. […] Both GILT and QUIZ were reported to start to suppress the tumorigenic clustering and c-Kit at the dose of 80 nM. […] The combination of 5 μM 5-Azacitidine (AZA) and 80 nM 1α,25-Dihydroxyvitamin D3 (VD3) was added to the experimental group similar to the previous report. As combination agents to treat blasts in vitro, one dose of 80 nM GILT with one dose of either 100 nM Venetoclax (BCL2 inhibitor), 10 μM (R)-Lisofylline (STAT4 inhibitor), 100 nM AZD1208 (PIM inhibitor), 500 nM PF-06826647 (TYK2 inhibitor), or 500 nM AT9283 (JAK2/3 inhibitor) were added to 1 ml of 1×10^6 cells for each experimental group in 24 well plates. Three days after the one dose treatment, cells were then collected for either analyses by FACS and qPCR, or re-plated into 24 well plates for continued culture. At different time points, re-plated cells were collected for analyses by FACS and qPCR. Medium change was performed every 2-3 days.
Imaging Acquisition. Phase-bright images were taken using an Olympus 1X71 inverted microscope and were processed using an Olympus cellSens Dimension 1.15 Imaging Software.

MOLM-14 cells = test: Phase-bright imaging of re-growth of TKI-treated MOLM-14; assay type: cell-based, human; conditions: 10 days after TKI treatment
From the text: as §1
as §2, with “At different time points, re-plated cells were collected for analyses by FACS and qPCR. Medium change was performed every 2-3 days.” left out

SMILES: CCc1nc(C(N)=O)c(Nc2ccc(N3CCC(N4CCN(C)CC4)CC3)c(OC)c2)nc1NC1CCOCC1 [GILT, Gilteritinib]
- percentage of viable quiescent CD44+ cell population (MV4-11 cells [1]): 17.7%
- MIF release increase in the supernatant (primary AML BMMNC): 2.1 fold

SMILES: CC(C)(C)c1cc(NC(=O)Nc2ccc(-c3cn4c(n3)sc3cc(OCCN5CCOCC5)ccc34)cc2)no1 [QUIZ, Quizartinib]
- dose at which suppression of tumorigenic clustering and c-Kit starts (MV4-11): 80 nM
- re-growth / tumorigenic clusters of MV4-11 (MV4-11 cells [2]; 10 days after TKI treatment): few newly formed tumorigenic clusters
- re-growth / tumorigenic clusters of MV4-11 (MV4-11 cells [2]; 20 days after TKI treatment): many tumorigenic clusters
- re-growth / relapse of MV4-11 (MV4-11 cells [2]; 28 days after TKI treatment): grew confluent without tumorigenic clusters
- re-growth / tumorigenic clusters of MOLM-14 (MOLM-14 cells): few newly formed tumorigenic clusters
